Patent publication US10583137B2, “Triazole DAGLα inhibitors” (THE SCRIPPS RESEARCH INSTITUTE, priority 2015, dated 2020)
Read-outs that look alike come from different tables or passages of the source.

Columns and labels:
DAGLβ (hDAGLβ-FLAG) = DAGLβ (hDAGLβ-FLAG) (Homo sapiens (Human), UniProt Q8NCG7); assay: competitive ABPP, membrane proteome of transfected HEK293T cells; assay type: biochemical; settings: for inhibition at 0.8 µM: read-out: DAGLβ % inh. 0.8 μM; for inhibition at 0.0032 µM: read-out: DAGLβ % inh. 3.2 nM
Procedure: (§1) Compounds 19 and 20 were tested for in vitro inhibition of DAGLα and DAGLβ as measured by competitive activity-based protein profiling (ABPP) of […] using a HT-01 probe (targets DAGLα and DAGLβ) and a FP-Rh probe (targets serine hydrolases).
(§2) Briefly, membrane proteome (1 mg/ml, 20 μL) was prepared from HEK293T cells (transiently transfected with hDAGLα-FLAG or hDAGLα-S472A-FLAG, hDAGLβ-FLAG or hDAGLβ-S443A-FLAG) as described in Example 16. The proteome was incubated at room temperature with vehicle (DMSO) or compound in 0.5 μL DMSO for 30 min. The membrane proteome sample was subsequently treated for 30 min with HT-01 probe (1 μM) or FP-Rh probe (1 μM). The reactions were quenched with 10 μL 3× Laemmli sample buffer (final concentrations: 60 mM Tris-Cl pH 6.8, 2% (w/v) SDS, 10% (v/v) glycerol, 5% (v/v) (3-mercaptoethanol, 0.01% (v/v) bromophenol blue). The samples were directly loaded and resolved on SDS page gel (10% acrylamide). The gels were scanned using a ChemiDoc MP system (Cy3 settings, 605/50 filter).
(§3) The resolved proteins were transferred from the gels to a polyvinyldifluoride membrane for Western Blotting using a Trans-Blot® Turbo (BioRad). FLAG-tagged enzymes were stained using rabbit anti-FLAG as primary antibody, and goat-anti-rabbit HRP as secondary antibody. The blot was developed in the dark using a 10 mL luminal solution, 100 μL ECL enhancer and 3 μL H2O2. Chemiluminescence was visualized using a ChemiDoc XRS (BioRad).
(§4) The percentage of DAGL activity remaining in the assayed samples was determined by measuring the integrated optical intensity of the fluorescent protein bands of the Western Blot using image lab 4.1. The relative intensity was compared to the vehicle (DMSO) treated proteins, which were set to 100%. IC50 values were determined by plotting a log(inhibitor) vs. normalized response (Variable slope) dose-response curve generated using Prism software (GraphPad).

DAGLα (hDAGLα-FLAG) = DAGLα (hDAGLα-FLAG) (Homo sapiens (Human), UniProt Q9Y4D2); assay: as above; assay type: biochemical; settings: for inhibition at 0.8 µM / DAGLα % inh. 0.8 μM: 0.8 μM (stated under the cell); for inhibition at 0.8 µM: read-out: DAGLα % inh. 0.8 μM; for inhibition at 0.0032 µM: 3.2 nM, read-out: DAGLα % inh. 3.2 nM
Procedure: as §1, §2, §3, §4

[1] = ABPP method, n=3, read-out: IC50, DAGLβ
[2] = ABPP method, n=3, read-out: IC50, DAGLα

Chain of DAGLα (hDAGLα-FLAG) (Q9Y4D2 whole entry): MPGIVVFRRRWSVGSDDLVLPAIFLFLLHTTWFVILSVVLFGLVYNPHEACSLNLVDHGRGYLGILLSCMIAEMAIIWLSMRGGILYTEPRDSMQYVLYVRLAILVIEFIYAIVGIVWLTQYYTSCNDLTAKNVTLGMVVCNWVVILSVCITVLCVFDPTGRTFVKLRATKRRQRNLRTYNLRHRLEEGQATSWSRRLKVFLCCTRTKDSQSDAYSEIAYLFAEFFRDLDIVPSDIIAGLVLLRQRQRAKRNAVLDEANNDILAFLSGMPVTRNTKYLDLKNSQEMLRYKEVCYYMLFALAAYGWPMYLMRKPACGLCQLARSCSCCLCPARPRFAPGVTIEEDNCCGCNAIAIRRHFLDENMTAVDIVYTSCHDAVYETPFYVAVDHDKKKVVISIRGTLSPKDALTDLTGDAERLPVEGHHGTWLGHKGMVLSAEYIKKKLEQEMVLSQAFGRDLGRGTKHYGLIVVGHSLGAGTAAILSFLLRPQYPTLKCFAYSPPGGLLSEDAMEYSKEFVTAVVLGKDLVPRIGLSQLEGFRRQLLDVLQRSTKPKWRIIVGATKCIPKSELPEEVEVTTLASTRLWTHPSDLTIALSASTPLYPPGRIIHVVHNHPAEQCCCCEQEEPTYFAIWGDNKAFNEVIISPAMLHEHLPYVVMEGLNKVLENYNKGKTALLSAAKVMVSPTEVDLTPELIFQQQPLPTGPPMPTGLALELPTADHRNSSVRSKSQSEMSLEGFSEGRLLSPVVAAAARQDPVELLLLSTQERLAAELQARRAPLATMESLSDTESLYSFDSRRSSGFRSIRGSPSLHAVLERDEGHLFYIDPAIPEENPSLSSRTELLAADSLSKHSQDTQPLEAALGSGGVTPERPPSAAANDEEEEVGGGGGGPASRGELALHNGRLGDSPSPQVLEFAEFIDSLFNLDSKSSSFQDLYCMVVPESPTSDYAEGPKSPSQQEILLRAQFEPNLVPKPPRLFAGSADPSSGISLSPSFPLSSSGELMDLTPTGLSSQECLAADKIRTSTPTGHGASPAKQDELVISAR
Chain of DAGLβ (hDAGLβ-FLAG) (Q8NCG7 whole entry): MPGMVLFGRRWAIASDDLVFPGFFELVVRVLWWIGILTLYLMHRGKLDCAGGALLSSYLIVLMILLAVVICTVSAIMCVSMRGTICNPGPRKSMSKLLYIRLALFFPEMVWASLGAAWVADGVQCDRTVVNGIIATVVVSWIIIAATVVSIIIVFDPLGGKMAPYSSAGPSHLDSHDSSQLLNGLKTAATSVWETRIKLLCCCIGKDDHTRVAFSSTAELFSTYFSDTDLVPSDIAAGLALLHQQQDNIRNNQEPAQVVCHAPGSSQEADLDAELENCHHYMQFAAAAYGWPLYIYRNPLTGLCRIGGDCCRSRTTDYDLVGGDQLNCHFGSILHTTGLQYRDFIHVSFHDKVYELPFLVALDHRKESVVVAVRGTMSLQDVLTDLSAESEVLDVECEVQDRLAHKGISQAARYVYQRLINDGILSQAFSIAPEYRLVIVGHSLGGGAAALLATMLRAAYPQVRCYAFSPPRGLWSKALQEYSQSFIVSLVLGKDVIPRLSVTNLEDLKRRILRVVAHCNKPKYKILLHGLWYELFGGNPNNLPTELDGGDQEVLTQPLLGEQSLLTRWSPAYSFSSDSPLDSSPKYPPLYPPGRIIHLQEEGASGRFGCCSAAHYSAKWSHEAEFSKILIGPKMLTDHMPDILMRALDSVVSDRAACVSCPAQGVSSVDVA

| SMILES | IC50 (DAGLβ (hDAGLβ-FLAG); read-out: DAGLβ IC50) [µM] | IC50 (DAGLα (hDAGLα-FLAG); read-out: DAGLα IC50) [µM] | other results |
| --- | --- | --- | --- |
| COc1cncc(OC)c1-c1ccc(-c2cn(C(=O)N3CCCCC3Cc3ccccc3)nn2)cc1 (centres unmarked) [Compound 19, (2-Benzylpiperidin-1-yl)(4-(4-(3,5-dimethoxypyridin-4-yl)phenyl)-1H-1,2,3-triazol-1-yl)methanone] | ≤ 0.4 | ≤ 0.4 | IC50 (DAGLβ (hDAGLβ-FLAG); [1]): 0.106 µM; IC50 (DAGLα (hDAGLα-FLAG); [2]): 0.0095 µM |
| COc1cc(OC)c(-c2ccc(-c3cn(C(=O)N4CCCCC4Cc4ccccc4)nn3)cc2)c(OC)c1 (centres unmarked) [Compound 20, (2-Benzylpiperidin-1-yl)(4-(2′,4′,6′-trimethoxybiphenyl-4-yl)-1H-1,2,3-triazol-1-yl)methanone] | ≤ 0.4 | ≤ 0.4 | IC50 (DAGLβ (hDAGLβ-FLAG); [1]): 0.319 µM; IC50 (DAGLα (hDAGLα-FLAG); [2]): 0.016 µM |
| CC(C)(C)OC(=O)N1CCN(C(=O)n2ncc(-c3ccc(OC(F)(F)F)cc3)n2)C(c2ccccc2)C1 (centres unmarked) [Compound 23, tert-butyl 3-phenyl-4-(4-(4-(trifluoromethoxy)phenyl)-2H-1,2,3-triazole-2-carbonyl)piperazine-1-carboxylate] | – | – | inhibition at 0.8 µM (DAGLβ (hDAGLβ-FLAG); 0.8 μM (stated under the cell)): 0 to 25%; inhibition at 0.8 µM (DAGLα (hDAGLα-FLAG)): 0 to 25% |
| CC(C)C(=O)N1CCN(C(=O)n2cc(-c3ccc(OC(F)(F)F)cc3)nn2)C(Cc2ccccc2)C1 (centres unmarked) [Compound 26, 1-(3-benzyl-4-(4-(4-(trifluoromethoxy)phenyl)-1H-1,2,3-triazole-1-carbonyl)piperazin-1-yl)-2-methylpropan-1-one] | – | – | inhibition at 0.8 µM (DAGLβ (hDAGLβ-FLAG); 0.8 μM (stated under the cell)): 0 to 25%; DAGLα % inh. 0.8 μM (DAGLα (hDAGLα-FLAG)): * (% inhibition greater than or equal to 0% and less than 25%) |
| CC(C)C(=O)N1CCN(C(=O)n2ncc(-c3ccc(OC(F)(F)F)cc3)n2)C(Cc2ccccc2)C1 (centres unmarked) [Compound 27, 1-(3-benzyl-4-(4-(4-(trifluoromethoxy)phenyl)-2H-1,2,3-triazole-2-carbonyl)piperazin-1-yl)-2-methylpropan-1-one] | – | – | inhibition at 0.8 µM (DAGLβ (hDAGLβ-FLAG); 0.8 μM (stated under the cell)): 0 to 25%; inhibition at 0.8 µM (DAGLα (hDAGLα-FLAG)): 0 to 25% |
| CC(C)C(=O)N1CCN(C(=O)n2cc(-c3ccc(OC(F)(F)F)cc3)nn2)C(Cc2ccccc2)C1 (centres unmarked) [Compound 30, 1-(3-benzyl-4-(4-(4-(trifluoromethoxy)phenyl)-1H-1,2,3-triazole-1-carbonyl)piperazin-1-yl)-2-methylpropan-1-one] | – | – | DAGLβ % inh. 0.8 μM (DAGLβ (hDAGLβ-FLAG); 0.8 μM (stated under the cell)): * (% inhibition greater than or equal to 0% and less than 25%); DAGLα % inh. 0.8 μM (DAGLα (hDAGLα-FLAG)): *** (% inhibition greater than or equal to 50% and less than 75%) |
| C#CCCCC(=O)N1CCN(C(=O)n2cc(-c3ccc(OC(F)(F)F)cc3)nn2)C(Cc2ccccc2)C1 (centres unmarked) [Compound 34, 1-(3-benzyl-4-(4-(4-(trifluoromethoxy)phenyl)-1H-1,2,3-triazole-1-carbonyl)piperazin-1-yl)hex-5-yn-1-one] | – | – | inhibition at 0.8 µM (DAGLβ (hDAGLβ-FLAG); 0.8 μM (stated under the cell)): 0 to 25%; inhibition at 0.8 µM (DAGLα (hDAGLα-FLAG)): 25 to 50% |
| C#CCCCC(=O)N1CCN(C(=O)n2ncc(-c3ccc(OC(F)(F)F)cc3)n2)C(Cc2ccccc2)C1 (centres unmarked) [Compound 35, 1-(3-benzyl-4-(4-(4-(trifluoromethoxy)phenyl)-2H-1,2,3-triazole-2-carbonyl)piperazin-1-yl)hex-5-yn-1-one] | – | – | inhibition at 0.8 µM (DAGLβ (hDAGLβ-FLAG); 0.8 μM (stated under the cell)): 0 to 25%; inhibition at 0.8 µM (DAGLα (hDAGLα-FLAG)): 0 to 25% |
| O=C(N1C[C@@H](OCC2CC2)CC[C@@H]1Cc1ccccc1)n1cc(-c2ccc(OC(F)(F)F)cc2)nn1 [Compound 44, ((2R,5S)-2-benzyl-5-(cyclopropylmethoxy)piperidin-1-yl)(4-(4-(trifluoromethoxy)phenyl)-1H-1,2,3-triazol-1-yl)methanone] | – | – | inhibition at 0.0032 µM (DAGLβ (hDAGLβ-FLAG)): 0 to 25%; inhibition at 0.0032 µM (DAGLα (hDAGLα-FLAG)): 25 to 50% |
| O=C(N1C[C@@H](OCC2CC2)CC[C@@H]1Cc1ccccc1)n1ncc(-c2ccc(OC(F)(F)F)cc2)n1 [Compound 45, ((2R,5S)-2-benzyl-5-(cyclopropylmethoxy)piperidin-1-yl)(4-(4-(trifluoromethoxy)phenyl)-2H-1,2,3-triazol-2-yl)methanone] | – | – | inhibition at 0.0032 µM (DAGLβ (hDAGLβ-FLAG)): 0 to 25%; inhibition at 0.0032 µM (DAGLα (hDAGLα-FLAG)): 25 to 50% |
| O=C(N1C[C@H](O)C=C[C@@H]1COCc1ccccc1)n1cc(-c2ccc(OC(F)(F)F)cc2)nn1 [Compound 50, ((3R,6R)-6-((Benzyloxy)methyl)-3-hydroxy-3,6-dihydropyridin-1(2H)-yl)(4-(4-(trifluoromethoxy)phenyl)-1H-1,2,3-triazol-1-yl)methanone] | – | – | inhibition at 0.0032 µM (DAGLβ (hDAGLβ-FLAG)): 0 to 25%; inhibition at 0.0032 µM (DAGLα (hDAGLα-FLAG)): 0 to 25% |
| O=C(N1C[C@H](O)C=C[C@@H]1COCc1ccccc1)n1ncc(-c2ccc(OC(F)(F)F)cc2)n1 [Compound 51, ((3R,6R)-6-((Benzyloxy)methyl)-3-hydroxy-3,6-dihydropyridin-1(2H)-yl)(4-(4-(trifluoromethoxy)phenyl)-2H-1,2,3-triazol-2-yl)methanone] | – | – | inhibition at 0.0032 µM (DAGLβ (hDAGLβ-FLAG)): 0 to 25%; inhibition at 0.0032 µM (DAGLα (hDAGLα-FLAG)): 0 to 25% |

Now from value to compound, other results behind:

| IC50 (DAGLβ (hDAGLβ-FLAG); read-out: DAGLβ IC50) [µM] | IC50 (DAGLα (hDAGLα-FLAG); read-out: DAGLα IC50) [µM] | SMILES | other results |
| --- | --- | --- | --- |
| ≤ 0.4 | 0.4 to 2 | CCC(CC)CN(CCc1ccncc1)C(=O)n1cc(-c2ccc(OC(F)(F)F)cc2)nn1 [Compound 53, N-(2-Ethylbutyl)-N-(2-(pyridin-4-yl)ethyl)-4-(4-(trifluoromethoxy)phenyl)-1H-1,2,3-triazole-1-carboxamide] | – |
| 2 to 10 | > 10 | CCC(CC)CN(CCc1ccncc1)C(=O)n1ncc(-c2ccc(OC(F)(F)F)cc2)n1 [Compound 54, N-(2-Ethylbutyl)-N-(2-(pyridin-4-yl)ethyl)-4-(4-(trifluoromethoxy)phenyl)-2H-1,2,3-triazole-2-carboxamide] | – |
| 2 to 10 | 0.4 to 2 | O=C(N1CCCCC1Cc1ccccc1)n1cc(-c2ccc(-c3ccncc3)cc2)nn1 (centres unmarked) [Compound 59, (2-benzylpiperidin-1-yl)(4-(4-(pyridin-4-yl)phenyl)-1H-1,2,3-triazol-1-yl)methanone] | – |
| 2 to 10 | ≤ 0.4 | O=C(N1CCCCC1Cc1ccccc1)n1cc(-c2ccc(-c3cccnc3)cc2)nn1 (centres unmarked) [Compound 60, (2-benzylpiperidin-1-yl)(4-(4-(pyridin-3-yl)phenyl)-1H-1,2,3-triazol-1-yl)methanone] | – |
| 2 to 10 | 0.4 to 2 | O=C(N1CCCCC1Cc1ccccc1)n1cc(-c2ccc(-c3ccccn3)cc2)nn1 (centres unmarked) [Compound 61, (2-benzylpiperidin-1-yl)(4-(4-(pyridin-2-yl)phenyl)-1H-1,2,3-triazol-1-yl)methanone] | – |
| 2 to 10 | ≤ 0.4 | COc1ccc(-c2ccc(-c3cn(C(=O)N4CCCCC4Cc4ccccc4)nn3)cc2)c(OC)c1 (centres unmarked) [Compound 62, (2-benzylpiperidin-1-yl)(4-(2′,4′-dimethoxy-[1,1′-biphenyl]-4-yl)-1H-1,2,3-triazol-1-yl)methanone] | – |
| 2 to 10 | ≤ 0.4 | COc1cccc(OC)c1-c1ccc(-c2cn(C(=O)N3CCCCC3Cc3ccccc3)nn2)cc1 (centres unmarked) [Compound 63, (2-benzylpiperidin-1-yl)(4-(2′,6′-dimethoxy-[1,1′-biphenyl]-4-yl)-1H-1,2,3-triazol-1-yl)methanone] | – |
| 2 to 10 | ≤ 0.4 | COc1cc(C)cc(OC)c1-c1ccc(-c2cn(C(=O)N3CCCCC3Cc3ccccc3)nn2)cc1 (centres unmarked) [Compound 64, (2-benzylpiperidin-1-yl)(4-(2′,6′-dimethoxy-4′-methyl-[1,1′-biphenyl]-4-yl)-1H-1,2,3-triazol-1-yl)methanone] | – |
| 2 to 10 | 0.4 to 2 | COc1cnccc1-c1ccc(-c2cn(C(=O)N3CCCCC3Cc3ccccc3)nn2)cc1 (centres unmarked) [Compound 65, (2-benzylpiperidin-1-yl)(4-(4-(3-methoxypyridin-4-yl)phenyl)-1H-1,2,3-triazol-1-yl)methanone] | – |
| ≤ 0.4 | ≤ 0.4 | O=C(N1CCCCC1Cc1ccncc1)n1cc(-c2ccc(-c3ccccc3)cc2)nn1 (centres unmarked) [Compound 66, (4-([1,1′-biphenyl]-4-yl)-1H-1,2,3-triazol-1-yl)(2-(pyridin-4-ylmethyl)piperidin-1-yl)methanone] | – |
| 2 to 10 | ≤ 0.4 | COc1cc(OC)c(-c2ccc(-c3cn(C(=O)N4CCCCC4Cc4ccncc4)nn3)cc2)c(OC)c1 (centres unmarked) [Compound 67, (2-(pyridin-4-ylmethyl)piperidin-1-yl)(4-(2′,4′,6′-trimethoxy-[1,1′-biphenyl]-4-yl)-1H-1,2,3-triazol-1-yl)methanone] | – |
| 2 to 10 | ≤ 0.4 | COc1cc(C)cc(OC)c1-c1ccc(-c2cn(C(=O)N3CCCCC3Cc3ccncc3)nn2)cc1 (centres unmarked) [Compound 68, (4-(2′,6′-dimethoxy-4′-methyl-[1,1′-biphenyl]-4-yl)-1H-1,2,3-triazol-1-yl)(2-(pyridin-4-ylmethyl)piperidin-1-yl)methanone] | – |
| – | 2 to 10 | CCC(CC)CN(CCc1ccccc1)C(=O)n1ncc(-c2ccc(OC(F)(F)F)cc2)n1 [Compound 126, N-(2-ethylbutyl)-N-phenethyl-4-(4-(trifluoromethoxy)phenyl)-2H-1,2,3-triazole-2-carboxamide] | – |
